Source: PMC12598616, “Design and optimization of caspase-1-responsive fluorescent probes for pyroptosis imaging and anti-pyroptosis drug screening” (Chemical Science, 2025)

Tested on: caspase-3
Assay: Selectivity of probes: caspase-3
Type: biochemical, human
Settings: caspase-3 1 μg/mL, 37 °C, 2 h, λex 510 nm, λem 585 nm
Source text: The resin used for SPPS was purchased from GL Biochem (Shanghai, China). Lipopolysaccharide (LPS, L2630), Nigericin and ATP (11140965001) were purchased from Merck (Shanghai, China) and Invitrogen (Shanghai, China), respectively. Cell culture plates were sourced from Wuxi NEST Biotechnology. Recombinant human caspase-1, caspase-3, caspase-4, and caspase-8 were obtained from Abcam and MCE (Shanghai, China). Anti-cleaved caspase-1 antibody, anti-GAPDH antibody, and goat anti-Rabbit/anti-mouse lgG/HRP were purchased from CST (USA) and Beyotime […]
(Shanghai, China). […]
Medical College (ethical approval number ZJCLA-IACUC-20011003). […]
To investigate the sensitivity of the probes for caspase-1, varying concentration of caspase-1 (0, 0.2, 0.4, 0.6, 0.8, 1.0, 1.25, 1.5, 1.75, 2, 2.5, 3 U/mL) were incubated with FPy1 (5 μM), YPy1 (5 μM) and WPy1 (5 μM) respectively in caspase-1 assay buffer (50 mM HEPES, 50 mM NaCl, 0.1 % chaps, 5 % glycerol, 10 mM DTT, 10 mM EDTA) at 37 °C for 2 hours. Fluorescence spectra were recorded using Hitachi F-2700 spectrophotometer with an excitation at 510 nm (Photomultiplier voltage 700 V; Slit widths ex: 10 nm and em =5.0 nm). […] The limit of detection (LoD) was calculated from 3σ/k, in which σ represents the standard deviation of 15 blank measurements. […]
10 nm and em =5.0 nm). The fluorescence intensity of FPy1, YPy1 and WPy1 at 585 nm were plotted separately against […]

Row | Substance | fluorescence response to caspase-3
1 | –YVADG– [YPy1, caspase-1-responsive FRET probe with recognition peptide –YVADG–; RhoB donor, hNR quencher] | almost no response
2 | –FLTDG– [FPy1, RhoB donor, hNR quencher] | almost no response
